Measurements from patent publication US12433876B2, “Septin inhibitors for treatment of cancers” (UNIVERSITY OF ROCHESTER, priority 2019, dated 2025).

Key:
[1] = tested on: endometrial (ECC-1 and KLE) and ovarian (HCH-1, OVCAR-3, and SKOV-3) cancer cell lines; assay: MTS cell viability, gynecologic cancer cell line panel; assay type: cell-based; settings: for cytotoxic / anti-proliferative activity (FIG. 2A): fixed concentration 100 μM, 24 hours; for proliferation in multiple endometrial and ovarian cancer cells: at considerably lower doses than FCF
Method: Cell lines, Culture, and Reagents. Cells were maintained in either DMEM (SKOV-3, KLE, OVCAR-3, OVCAR8-C5 and IGROV-1) or RPMI-1640 (ECC-1 and HCH-1), supplemented with 10% fetal calf serum (or 20% for OVCAR-3), penicillin (100 units/mL), and streptomycin (100 μg/mL) at 37° C. with 5% CO2 in a humidified incubator. Antibodies were purchased from Abcam (septin-2; ab179436) and Cell Signaling Technology; ERK (9102), p-ERK (4370), -actin (3700), u-Tubulin (2144), EGFR (4267) and HER2 (4290). FCF was purchased from Abcam. All other chemicals were from Sigma Aldrich. Synthesis of Derivaties. […] The reaction was monitored using thin-layer chromatography plates with DCM-MeOH or pure ethyl acetate as eluent. Spots were monitored in a UV chamber. The reaction mixture, upon completion of the reaction, was poured into wet ice mixture and triturated, then the separated solid was filtered by vacuum. The product was washed with hexane, followed by diethyl ether, and was dried under vacuum. The compounds were characterized by spectrophotometric techniques. Quantitative Real-Time PCR. The indicated cell lines were transfected with siRNA targeting septin-2 or non-targeting control siRNA (Santa Cruz Biotechnology: sc-37007 or sc-40936) using Lipofectamine 3000 (Invitrogen). Tri reagent and Direct-zol kit (Zymo Research) were used to lyse and isolate total RNA. Reverse transcription was performed using iScript cDNA synthesis kit (BioRad), both following the manufacturer's recommendations. Quantitative real-time PCR was conducted using QuantStudio 12 K Flex Real-Time PCR System (ABI) and the Taqman Gene Expression Assay (ABI) consisting of the FAM-labeled probes as follows: SEPT2 (Hs01565417_ml); WFDC2 (Hs00899484_ml); TBP (Hs00427620_ml) or B2M (Hs00187842_ml), which was used as reference for normalization. Cell Viability, Proliferation and Apoptosis Assay. Cell viability, proliferation, and cellular apoptosis were measured using the MTS (Promega), BrdU cell proliferation (Cell Signaling Technology), and Caspase-Glo 3/7 apoptosis detection (Promega) assays, following the respective manufacturer's recommendations with suitable modification. Enzyme-Linked Immunosorbent Assay (ELISA) and Immunoblotting. Cells were maintained overnight in the culture media described above. […] Following the treatment, cell lysates and supernatants were collected and subjected to HE4 assay (Human HE4 Quantikine ELISA Kit, R&D Systems). The amount of HE4 in supernatant was normalized to the protein concentration of matching cell lysate. The levels of HER2 were determined by Human Total ErbB2/Her2 DuoSet IC ELISA (R&D systems. Wester blot analysis was conducted using the protocol previously published (see Kim, K. K. et al. Tetrathiomolybdate inhibits mitochondrial complex IV and mediates degradation of hypoxia-inducible factor-1alpha in cancer cells. Sci. Rep. 5, 14296, 2015). Data Acquisition and Statistical Analysis. Gene expression profiling of septins, comparing microdissected normal ovarian stroma (N=8) against that of tumor stroma samples (N=31) from high grade serous ovarian cancer patients, was obtained from Mixed Ovarian Cancer (CAFs)-Wong-77-u133p2 data-set through ‘R2: Genomics Analysis and Visualization Platform (http://r2/am/n1). Mean values with SD were plotted and compared using Student t-test (two tail, unpaired heteroscedastic t-test, significant difference when p<0.01). The prognostic assessment of septin-2 amongst different cancers or septins in endometrial cancer was conducted using TCGA data acquired through Human Protein Atlas (http://www.proteinatlas.org) (see Uhlen, M. et al. Towards a knowledge-based Human Protein Atlas. Nat. Biotechnol. 28, 1248-1250, 2010). Survival curves between septin high and low population and their statistical significance were analyzed using GraphPad Prism software (Mantel-Cox test). […] Structural Modification of FCF. […]

EGFR = assay: Western blot of EGFR expression; assay type: cell-based; settings: UR214-7 33 μM, UR214-9 33 μM; 24 hours
Method: (§1) Cell lines, Culture, and Reagents. Cells were maintained in either DMEM (SKOV-3, KLE, OVCAR-3, OVCAR8-C5 and IGROV-1) or RPMI-1640 (ECC-1 and HCH-1), supplemented with 10% fetal calf serum (or 20% for OVCAR-3), penicillin (100 units/mL), and streptomycin (100 μg/mL) at 37° C. with 5% CO2 in a humidified incubator. Antibodies were purchased from Abcam (septin-2; ab179436) and Cell Signaling Technology; ERK (9102), p-ERK (4370), -actin (3700), u-Tubulin (2144), EGFR (4267) and HER2 (4290). FCF was purchased from Abcam. All other chemicals were from Sigma Aldrich. Synthesis of Derivaties. […] The reaction was monitored using thin-layer chromatography plates with DCM-MeOH or pure ethyl acetate as eluent. Spots were monitored in a UV chamber. […] Quantitative Real-Time PCR. […] Quantitative real-time PCR was conducted using QuantStudio 12 K Flex Real-Time PCR System (ABI) and the Taqman Gene Expression Assay (ABI) consisting of the FAM-labeled probes as follows: SEPT2 (Hs01565417_ml); WFDC2 (Hs00899484_ml); TBP (Hs00427620_ml) or B2M (Hs00187842_ml), which was used as reference for normalization. […] Cell viability, proliferation, and cellular apoptosis were measured using the MTS (Promega), BrdU cell proliferation (Cell Signaling Technology), and Caspase-Glo 3/7 apoptosis detection (Promega) assays, following the respective manufacturer's recommendations with suitable modification. […]

ECC-1 cells [2] = assay: Caspase-3/7 activity apoptosis assay; assay type: cell-based; settings: ECC-1, 33 μM, 48 hours
Method: as §1

HCH-1 cells = assay: MTS cell viability, HCH-1; assay type: cell-based; settings: HCH-1, 72 hours, compared with UR214-9
Method: as §1

HE4 = HE4 ELISA, secreted and intracellular levels; assay type: cell-based, human; settings: ECC-1, 5 hours
Method: Cell lines, Culture, and Reagents. Cells were maintained in either DMEM (SKOV-3, KLE, OVCAR-3, OVCAR8-C5 and IGROV-1) or RPMI-1640 (ECC-1 and HCH-1), supplemented with 10% fetal calf serum (or 20% for OVCAR-3), penicillin (100 units/mL), and streptomycin (100 μg/mL) at 37° C. with 5% CO2 in a humidified incubator. Antibodies were purchased from Abcam (septin-2; ab179436) and Cell Signaling Technology; ERK (9102), p-ERK (4370), -actin (3700), u-Tubulin (2144), EGFR (4267) and HER2 (4290). FCF was purchased from Abcam. All other chemicals were from Sigma Aldrich. Synthesis of Derivaties. […] The reaction was monitored using thin-layer chromatography plates with DCM-MeOH or pure ethyl acetate as eluent. Spots were monitored in a UV chamber. The reaction mixture, upon completion of the reaction, was poured into wet ice mixture and triturated, then the separated solid was filtered by vacuum. The product was washed with hexane, followed by diethyl ether, and was dried under vacuum. The compounds were characterized by spectrophotometric techniques. Quantitative Real-Time PCR. The indicated cell lines were transfected with siRNA targeting septin-2 or non-targeting control siRNA (Santa Cruz Biotechnology: sc-37007 or sc-40936) using Lipofectamine 3000 (Invitrogen). Tri reagent and Direct-zol kit (Zymo Research) were used to lyse and isolate total RNA. Reverse transcription was performed using iScript cDNA synthesis kit (BioRad), both following the manufacturer's recommendations. Quantitative real-time PCR was conducted using QuantStudio 12 K Flex Real-Time PCR System (ABI) and the Taqman Gene Expression Assay (ABI) consisting of the FAM-labeled probes as follows: SEPT2 (Hs01565417_ml); WFDC2 (Hs00899484_ml); TBP (Hs00427620_ml) or B2M (Hs00187842_ml), which was used as reference for normalization. Cell Viability, Proliferation and Apoptosis Assay. Cell viability, proliferation, and cellular apoptosis were measured using the MTS (Promega), BrdU cell proliferation (Cell Signaling Technology), and Caspase-Glo 3/7 apoptosis detection (Promega) assays, following the respective manufacturer's recommendations with suitable modification. Enzyme-Linked Immunosorbent Assay (ELISA) and Immunoblotting. Cells were maintained overnight in the culture media described above. […] Following the treatment, cell lysates and supernatants were collected and subjected to HE4 assay (Human HE4 Quantikine ELISA Kit, R&D Systems). The amount of HE4 in supernatant was normalized to the protein concentration of matching cell lysate. The levels of HER2 were determined by Human Total ErbB2/Her2 DuoSet IC ELISA (R&D systems. Wester blot analysis was conducted using the protocol previously published (see Kim, K. K. et al. Tetrathiomolybdate inhibits mitochondrial complex IV and mediates degradation of hypoxia-inducible factor-1alpha in cancer cells. Sci. Rep. 5, 14296, 2015). Data Acquisition and Statistical Analysis. Gene expression profiling of septins, comparing microdissected normal ovarian stroma (N=8) against that of tumor stroma samples (N=31) from high grade serous ovarian cancer patients, was obtained from Mixed Ovarian Cancer (CAFs)-Wong-77-u133p2 data-set through ‘R2: Genomics Analysis and Visualization Platform (http://r2/am/n1). […] Survival curves between septin high and low population and their statistical significance were analyzed using GraphPad Prism software (Mantel-Cox test). […]

HER2 = assay: Western blot of HER2 expression in ECC-1 and HCH-1 cells; assay type: cell-based; settings: UR214-7 33 μM, UR214-9 33 μM, FCF 300 μM, 24 hours
Method: (§2) Cell lines, Culture, and Reagents. Cells were maintained in either DMEM (SKOV-3, KLE, OVCAR-3, OVCAR8-C5 and IGROV-1) or RPMI-1640 (ECC-1 and HCH-1), supplemented with 10% fetal calf serum (or 20% for OVCAR-3), penicillin (100 units/mL), and streptomycin (100 μg/mL) at 37° C. with 5% CO2 in a humidified incubator. Antibodies were purchased from Abcam (septin-2; ab179436) and Cell Signaling Technology; ERK (9102), p-ERK (4370), -actin (3700), u-Tubulin (2144), EGFR (4267) and HER2 (4290). FCF was purchased from Abcam. All other chemicals were from Sigma Aldrich. Synthesis of Derivaties. […] The reaction was monitored using thin-layer chromatography plates with DCM-MeOH or pure ethyl acetate as eluent. Spots were monitored in a UV chamber. The reaction mixture, upon completion of the reaction, was poured into wet ice mixture and triturated, then the separated solid was filtered by vacuum. The product was washed with hexane, followed by diethyl ether, and was dried under vacuum. The compounds were characterized by spectrophotometric techniques. Quantitative Real-Time PCR. The indicated cell lines were transfected with siRNA targeting septin-2 or non-targeting control siRNA (Santa Cruz Biotechnology: sc-37007 or sc-40936) using Lipofectamine 3000 (Invitrogen). […] Quantitative real-time PCR was conducted using QuantStudio 12 K Flex Real-Time PCR System (ABI) and the Taqman Gene Expression Assay (ABI) consisting of the FAM-labeled probes as follows: SEPT2 (Hs01565417_ml); WFDC2 (Hs00899484_ml); TBP (Hs00427620_ml) or B2M (Hs00187842_ml), which was used as reference for normalization. […] Cell viability, proliferation, and cellular apoptosis were measured using the MTS (Promega), BrdU cell proliferation (Cell Signaling Technology), and Caspase-Glo 3/7 apoptosis detection (Promega) assays, following the respective manufacturer's recommendations with suitable modification. […] Survival curves between septin high and low population and their statistical significance were analyzed using GraphPad Prism software (Mantel-Cox test). […]

ECC-1 cells [3] = assay: MTS cell viability, ECC-1; assay type: cell-based; settings: ECC-1, 48 hours, MTS (FIG. 2B)
Method: as §2

ECC-1 cells [4] = assay: BrdU cell proliferation assay; assay type: cell-based; settings: ECC-1, 48 hours, BrdU, lower dose ranges
Method: as §2

[5] = tested on: JIMT-1 breast cancer cells; assay: RNA-Seq whole transcriptome analysis, JIMT-1; assay type: cell-based, human; settings: 10 nM Afatinib

O=C(Nc1cnc(Cl)nc1)Nc1cc(SC(F)(F)F)ccc1Cl [UR214-6]
cytotoxic / anti-proliferative activity (FIG. 2A) ([1]; MTS): lack of activity

O=C(Nc1cccc(OCc2ccccc2)c1)Nc1ccnc(Cl)c1 [UR214-2]
cytotoxic / anti-proliferative activity (FIG. 2A) ([1]; MTS): not tolerated

O=C(Nc1ccnc(Br)c1)Nc1cccc(C(F)(F)F)c1F [UR214-11]
viability of tumor cells, dose-dependent (FIG. 2E) ([1]; 72 hours, MTS): did not lose activity

O=C(Nc1ccnc(Cl)c1)Nc1cccc(SC(F)(F)F)c1F [UR214-7]
EGFR expression (EGFR): did not have an effect | apoptosis (caspase-3/7 activity) (ECC-1 cells [2]): caused apoptosis | viability of tumor cells, dose-dependent (FIG. 2E) (HCH-1 cells): superior efficacy | HE4 secretion (HE4): reduced HE4 secretion | proliferation in multiple endometrial and ovarian cancer cells [1]: blocked proliferation | HER2 expression (HER2): inhibition of HER2 expression | concentration inhibiting viability (ECC-1 cells [3]): ≥ 11 µM | proliferation (ECC-1 cells [4]): reduce proliferation

O=C(Nc1ccnc(Cl)c1)Nc1cc(SC(F)(F)F)ccc1Cl [UR214-1]
HE4 secretion (HE4): reduced HE4 secretion | proliferation in multiple endometrial and ovarian cancer cells [1]: blocked proliferation | cytotoxic / anti-proliferative activity (FIG. 2A) ([1]; MTS): very potent cytotoxic activity

O=C(Nc1ccc(-c2ncccn2)cc1)Nc1ccnc(Cl)c1 [UR214-4]
cytotoxic / anti-proliferative activity (FIG. 2A) ([1]; MTS): not tolerated

CN(C)C/C=C/C(=O)Nc1cc2c(Nc3ccc(F)c(Cl)c3)ncnc2cc1O[C@H]1CCOC1 [Afatinib]
dysregulated genes, down ([5]; 1 μM UR214-9): 523 | dysregulated genes, up ([5]; 1 μM UR214-9): 713 | dysregulated (differentially expressed) genes versus control ([5]; 1 μM UR214-9, adjusted p-value <0.05): 1236 genes

O=C(Nc1ccc(-n2cccc2)cc1)Nc1ccnc(Cl)c1 [UR214-3]
cytotoxic / anti-proliferative activity (FIG. 2A) ([1]; MTS): not tolerated
